The source made the active and inactive calls.
Assays:
[1] = biological target: T1, Sentrin-specific protease 8 (Homo sapiens, UniProt Q96LD8); format: functional;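 note: luminescence read-out of SENP8 inhibition, dose-response confirmation following an ultra-high-throughput screen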
T1 sequence (Q96LD8 whole entry): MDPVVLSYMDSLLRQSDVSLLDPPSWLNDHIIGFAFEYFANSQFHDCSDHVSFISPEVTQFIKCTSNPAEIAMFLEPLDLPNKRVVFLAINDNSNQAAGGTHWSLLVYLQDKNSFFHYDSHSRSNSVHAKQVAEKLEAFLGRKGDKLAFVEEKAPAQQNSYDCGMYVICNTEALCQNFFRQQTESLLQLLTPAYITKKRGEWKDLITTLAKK

[2] = biological target: T2, Mannose-6-phosphate isomerase (Homo sapiens, UniProt P34949); experiment: MPI enzyme activity inhibition – biochemical, fluorescence intensity, coupled assay, primary screen (AID 1209)
T2 sequence (P34949 whole entry): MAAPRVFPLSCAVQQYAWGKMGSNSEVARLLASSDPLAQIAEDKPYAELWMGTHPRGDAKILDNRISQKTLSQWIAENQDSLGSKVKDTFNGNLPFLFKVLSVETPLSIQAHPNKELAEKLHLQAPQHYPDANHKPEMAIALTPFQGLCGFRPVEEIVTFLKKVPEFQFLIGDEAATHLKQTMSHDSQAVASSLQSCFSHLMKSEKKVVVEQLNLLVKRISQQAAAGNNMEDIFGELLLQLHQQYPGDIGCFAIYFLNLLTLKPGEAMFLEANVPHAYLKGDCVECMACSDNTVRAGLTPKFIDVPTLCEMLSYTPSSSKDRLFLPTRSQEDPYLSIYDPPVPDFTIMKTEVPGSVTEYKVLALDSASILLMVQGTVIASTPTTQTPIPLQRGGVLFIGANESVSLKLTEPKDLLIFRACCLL

Caspase-3 = biological target: T3, Caspase-3 (Homo sapiens, UniProt P42574); format: functional;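 note: Dose-response selectivity test against caspase-3 for candidate inhibitors of sentrin-specific proteases (SENPs)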
T3 sequence (P42574 whole entry): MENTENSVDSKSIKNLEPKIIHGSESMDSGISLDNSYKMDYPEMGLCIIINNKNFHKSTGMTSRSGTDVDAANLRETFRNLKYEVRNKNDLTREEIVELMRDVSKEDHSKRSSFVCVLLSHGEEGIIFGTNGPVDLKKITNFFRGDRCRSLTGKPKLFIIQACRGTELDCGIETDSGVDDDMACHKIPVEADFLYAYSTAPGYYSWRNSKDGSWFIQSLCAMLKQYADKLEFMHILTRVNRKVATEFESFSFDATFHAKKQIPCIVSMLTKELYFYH

[3] = biological target: Proto-oncogene tyrosine-protein kinase receptor Ret (Homo sapiens, UniProt P07949); format: functional;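 note: measured within a kinome-wide profiling panel, RET as the panel member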
Chain of Proto-oncogene tyrosine-protein kinase receptor Ret (P07949 whole entry): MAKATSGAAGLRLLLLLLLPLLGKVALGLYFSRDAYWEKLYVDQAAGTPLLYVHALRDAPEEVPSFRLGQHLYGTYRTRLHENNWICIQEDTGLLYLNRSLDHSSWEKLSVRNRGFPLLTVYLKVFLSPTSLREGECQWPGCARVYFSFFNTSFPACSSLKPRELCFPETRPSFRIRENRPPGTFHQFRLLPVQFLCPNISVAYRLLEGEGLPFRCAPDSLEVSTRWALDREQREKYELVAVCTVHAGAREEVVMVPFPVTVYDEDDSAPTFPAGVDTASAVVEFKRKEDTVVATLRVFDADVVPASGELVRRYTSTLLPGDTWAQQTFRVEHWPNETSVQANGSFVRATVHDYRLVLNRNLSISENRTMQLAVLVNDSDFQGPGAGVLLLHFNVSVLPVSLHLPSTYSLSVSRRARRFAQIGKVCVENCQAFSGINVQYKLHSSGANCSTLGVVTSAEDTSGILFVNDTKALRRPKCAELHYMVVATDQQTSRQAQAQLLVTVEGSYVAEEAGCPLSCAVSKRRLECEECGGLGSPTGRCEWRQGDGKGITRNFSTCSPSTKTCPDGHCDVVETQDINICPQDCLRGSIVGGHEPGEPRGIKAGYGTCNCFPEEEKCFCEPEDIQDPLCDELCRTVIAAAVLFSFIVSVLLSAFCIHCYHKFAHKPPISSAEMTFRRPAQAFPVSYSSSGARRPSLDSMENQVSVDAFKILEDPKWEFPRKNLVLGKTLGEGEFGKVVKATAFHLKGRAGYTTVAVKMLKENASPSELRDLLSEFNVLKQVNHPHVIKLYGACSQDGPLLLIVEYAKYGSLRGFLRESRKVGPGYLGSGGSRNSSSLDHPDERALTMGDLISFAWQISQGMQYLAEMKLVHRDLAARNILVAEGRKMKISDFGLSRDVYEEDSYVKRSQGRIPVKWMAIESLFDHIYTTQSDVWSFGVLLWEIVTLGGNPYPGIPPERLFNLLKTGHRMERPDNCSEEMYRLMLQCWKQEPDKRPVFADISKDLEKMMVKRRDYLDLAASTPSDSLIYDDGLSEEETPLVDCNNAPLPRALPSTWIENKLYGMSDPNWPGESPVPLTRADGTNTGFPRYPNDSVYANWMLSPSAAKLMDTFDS

[4] = biological target: cAMP-dependent protein kinase catalytic subunit PRKX (Homo sapiens, UniProt P51817); format: functional
Chain of cAMP-dependent protein kinase catalytic subunit PRKX (P51817 whole entry): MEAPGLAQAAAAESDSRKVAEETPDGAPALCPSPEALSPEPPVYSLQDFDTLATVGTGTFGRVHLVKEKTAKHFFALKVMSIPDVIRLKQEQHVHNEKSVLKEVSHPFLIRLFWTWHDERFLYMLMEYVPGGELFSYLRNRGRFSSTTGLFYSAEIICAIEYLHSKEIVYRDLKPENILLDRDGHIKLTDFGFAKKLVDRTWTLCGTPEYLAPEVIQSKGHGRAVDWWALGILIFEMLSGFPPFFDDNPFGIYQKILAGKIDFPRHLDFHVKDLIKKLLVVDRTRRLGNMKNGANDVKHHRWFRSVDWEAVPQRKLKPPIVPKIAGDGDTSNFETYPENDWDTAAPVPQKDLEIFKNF

[5] = biological target: Dual specificity tyrosine-phosphorylation-regulated kinase 1B (Homo sapiens, UniProt Q9Y463); experiment: Navigating the Kinome. Panel member name: DYRK1B; format: functional
[6] = biological target: Platelet-derived growth factor receptor alpha (Homo sapiens, UniProt P16234); experiment: Navigating the Kinome. Panel member name: PDGFRA; format: functional
Chain of Platelet-derived growth factor receptor alpha (P16234 whole entry): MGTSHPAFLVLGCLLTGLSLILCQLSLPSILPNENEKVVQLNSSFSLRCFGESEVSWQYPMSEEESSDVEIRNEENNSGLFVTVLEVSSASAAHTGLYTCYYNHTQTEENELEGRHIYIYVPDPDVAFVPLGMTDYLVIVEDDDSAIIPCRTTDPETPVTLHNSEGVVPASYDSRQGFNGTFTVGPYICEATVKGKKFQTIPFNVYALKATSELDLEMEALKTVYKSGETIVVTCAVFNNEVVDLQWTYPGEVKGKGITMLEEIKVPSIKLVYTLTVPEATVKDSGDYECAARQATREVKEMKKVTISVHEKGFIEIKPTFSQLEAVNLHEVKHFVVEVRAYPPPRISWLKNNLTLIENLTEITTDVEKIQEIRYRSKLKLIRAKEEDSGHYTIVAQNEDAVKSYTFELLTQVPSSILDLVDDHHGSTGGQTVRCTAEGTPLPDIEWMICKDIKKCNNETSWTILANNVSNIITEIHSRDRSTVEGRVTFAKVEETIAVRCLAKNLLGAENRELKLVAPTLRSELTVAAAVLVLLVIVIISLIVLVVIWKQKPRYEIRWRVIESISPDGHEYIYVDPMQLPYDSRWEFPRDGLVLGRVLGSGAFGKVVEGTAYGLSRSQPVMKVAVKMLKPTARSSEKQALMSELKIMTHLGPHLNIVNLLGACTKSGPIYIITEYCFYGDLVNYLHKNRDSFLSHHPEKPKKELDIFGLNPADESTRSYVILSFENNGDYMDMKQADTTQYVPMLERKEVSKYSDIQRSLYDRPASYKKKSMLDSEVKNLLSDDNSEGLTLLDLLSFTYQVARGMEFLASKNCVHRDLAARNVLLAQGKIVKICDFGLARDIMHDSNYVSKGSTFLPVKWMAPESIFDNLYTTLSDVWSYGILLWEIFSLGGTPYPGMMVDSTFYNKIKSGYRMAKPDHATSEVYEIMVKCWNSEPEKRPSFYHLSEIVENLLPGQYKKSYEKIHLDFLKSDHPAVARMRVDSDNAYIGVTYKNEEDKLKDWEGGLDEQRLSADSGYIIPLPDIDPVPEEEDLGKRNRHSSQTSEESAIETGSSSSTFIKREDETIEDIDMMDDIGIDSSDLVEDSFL

[7] = biological target: Tyrosine-protein kinase Fer (Homo sapiens, UniProt P16591); format: functional;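 note: FER tested as one member of a kinome panel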
[8] = biological target: Calcium/calmodulin-dependent protein kinase type 1 (Homo sapiens, UniProt Q14012); format: functional
[9] = biological target: Mitogen-activated protein kinase kinase kinase kinase 5 (Homo sapiens, UniProt Q9Y4K4); format: functional;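 note: measured as one member of a kinome-spanning kinase panel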
Chain of Mitogen-activated protein kinase kinase kinase kinase 5 (Q9Y4K4 whole entry): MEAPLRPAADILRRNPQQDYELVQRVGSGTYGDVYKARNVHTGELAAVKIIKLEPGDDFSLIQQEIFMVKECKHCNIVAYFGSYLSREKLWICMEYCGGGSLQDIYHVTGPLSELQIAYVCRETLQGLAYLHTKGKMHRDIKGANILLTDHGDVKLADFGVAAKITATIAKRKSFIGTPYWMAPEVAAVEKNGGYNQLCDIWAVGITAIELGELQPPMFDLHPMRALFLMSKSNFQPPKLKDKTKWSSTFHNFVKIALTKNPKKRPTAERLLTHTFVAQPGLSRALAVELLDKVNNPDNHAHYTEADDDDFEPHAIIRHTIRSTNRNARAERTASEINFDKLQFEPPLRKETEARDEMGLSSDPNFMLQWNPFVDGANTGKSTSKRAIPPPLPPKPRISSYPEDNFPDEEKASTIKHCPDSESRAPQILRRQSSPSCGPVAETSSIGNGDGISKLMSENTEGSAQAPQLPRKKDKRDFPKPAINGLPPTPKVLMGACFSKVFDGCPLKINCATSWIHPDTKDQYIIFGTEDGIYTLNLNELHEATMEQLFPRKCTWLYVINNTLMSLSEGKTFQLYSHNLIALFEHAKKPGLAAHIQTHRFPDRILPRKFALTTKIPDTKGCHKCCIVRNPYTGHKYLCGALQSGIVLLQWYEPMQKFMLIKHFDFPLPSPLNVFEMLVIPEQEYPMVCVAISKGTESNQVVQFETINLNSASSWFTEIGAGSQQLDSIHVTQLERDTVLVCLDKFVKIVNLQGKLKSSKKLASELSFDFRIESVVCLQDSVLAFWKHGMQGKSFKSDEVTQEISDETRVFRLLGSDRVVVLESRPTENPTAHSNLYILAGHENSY

[10] = biological target: MAP/microtubule affinity-regulating kinase 3 (Homo sapiens, UniProt P27448); format: functional;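 note: MARK3 affinity measured as one member of a kinome panel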
[11] = biological target: Casein kinase I isoform alpha (Homo sapiens, UniProt P48729); format: functional
Chain of Casein kinase I isoform alpha (P48729 whole entry, canonical isoform): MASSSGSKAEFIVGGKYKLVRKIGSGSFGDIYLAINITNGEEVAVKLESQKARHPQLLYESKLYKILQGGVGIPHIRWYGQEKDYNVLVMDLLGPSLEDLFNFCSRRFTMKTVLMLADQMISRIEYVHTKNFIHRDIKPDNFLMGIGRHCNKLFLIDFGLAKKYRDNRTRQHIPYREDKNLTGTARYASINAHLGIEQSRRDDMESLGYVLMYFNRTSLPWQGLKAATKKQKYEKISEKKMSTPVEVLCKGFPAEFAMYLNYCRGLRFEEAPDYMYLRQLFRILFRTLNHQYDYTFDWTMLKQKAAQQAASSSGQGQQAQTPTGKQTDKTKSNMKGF

[12] = biological target: Tyrosine-protein kinase Blk (Homo sapiens, UniProt P51451); format: functional;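 note: obtained as one member of a kinome-wide kinase assay panel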
Chain of Tyrosine-protein kinase Blk (P51451 whole entry): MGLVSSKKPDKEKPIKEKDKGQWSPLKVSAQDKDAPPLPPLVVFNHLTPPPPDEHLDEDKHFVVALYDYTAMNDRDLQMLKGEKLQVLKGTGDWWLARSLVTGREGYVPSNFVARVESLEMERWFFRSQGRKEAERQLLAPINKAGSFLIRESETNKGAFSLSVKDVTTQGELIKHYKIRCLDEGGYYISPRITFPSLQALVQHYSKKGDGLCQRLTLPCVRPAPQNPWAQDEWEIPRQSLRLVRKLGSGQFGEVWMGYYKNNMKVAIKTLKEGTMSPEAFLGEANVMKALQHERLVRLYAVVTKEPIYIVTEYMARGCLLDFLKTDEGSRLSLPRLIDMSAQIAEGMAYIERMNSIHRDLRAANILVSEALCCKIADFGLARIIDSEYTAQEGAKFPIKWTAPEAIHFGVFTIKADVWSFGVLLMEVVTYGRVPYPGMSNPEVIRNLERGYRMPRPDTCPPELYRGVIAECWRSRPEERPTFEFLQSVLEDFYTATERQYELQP

[13] = biological target: Serine/threonine-protein kinase MRCK alpha (Homo sapiens, UniProt Q5VT25); format: functional
[14] = biological target: Serine/threonine-protein kinase BRSK1 (Homo sapiens, UniProt Q8TDC3); format: functional;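 note: measured within a kinome-wide kinase panel, with the target listed as KIAA1811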
Chain of Serine/threonine-protein kinase BRSK1 (Q8TDC3 whole entry): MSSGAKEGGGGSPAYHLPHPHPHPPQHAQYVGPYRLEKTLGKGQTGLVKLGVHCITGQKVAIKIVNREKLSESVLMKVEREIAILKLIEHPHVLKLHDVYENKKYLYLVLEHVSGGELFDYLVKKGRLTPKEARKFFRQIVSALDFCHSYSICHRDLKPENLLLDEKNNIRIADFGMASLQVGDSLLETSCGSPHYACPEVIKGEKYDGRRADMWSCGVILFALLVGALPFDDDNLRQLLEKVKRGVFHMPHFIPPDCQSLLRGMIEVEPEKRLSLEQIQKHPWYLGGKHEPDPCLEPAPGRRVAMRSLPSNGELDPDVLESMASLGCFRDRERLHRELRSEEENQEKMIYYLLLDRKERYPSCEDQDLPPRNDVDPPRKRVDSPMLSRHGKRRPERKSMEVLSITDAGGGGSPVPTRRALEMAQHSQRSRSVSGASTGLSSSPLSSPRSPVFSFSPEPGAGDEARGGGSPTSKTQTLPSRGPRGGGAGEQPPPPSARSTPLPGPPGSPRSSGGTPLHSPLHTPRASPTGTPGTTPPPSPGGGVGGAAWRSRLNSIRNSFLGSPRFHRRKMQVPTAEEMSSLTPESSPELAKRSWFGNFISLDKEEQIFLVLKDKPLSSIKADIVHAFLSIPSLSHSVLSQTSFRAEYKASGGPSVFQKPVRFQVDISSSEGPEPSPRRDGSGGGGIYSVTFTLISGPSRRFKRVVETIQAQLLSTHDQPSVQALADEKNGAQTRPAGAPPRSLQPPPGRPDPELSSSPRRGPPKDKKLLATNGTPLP

[15] = biological target: Tyrosine-protein kinase receptor UFO (Homo sapiens, UniProt P30530); format: functional
[16] = biological target: Mitogen-activated protein kinase 12 (Homo sapiens, UniProt P53778); format: functional;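 note: measured as one member of a kinome-wide kinase profiling panel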

In the case of `COc1ccc(-n2c(NC(=O)c3ccco3)c(C#N)c3nc4ccccc4nc32)cc1`, the IC50 [1] is reported as 7.57 µM (active), the IC50 [2] is reported as > 50 µM (not active) and the IC50 (Caspase-3) is reported as 26.6 µM (active).
For `[2H]C([2H])([2H])Oc1cccc(C(C)NC(=O)c2sc(-c3ccncc3)nc2C)c1` (configuration not stated), the Ki [3] was > 3.16 µM (inactive), the Ki [4] was > 3.16 µM (inactive) and the Ki [5] was > 2.51 µM (inactive). The Ki [6] was > 2.51 µM (inactive).
In the case of `Cc1n[nH]c2ccc(-c3cncc(OCC(N)Cc4ccc(Cl)c(Cl)c4)c3)cc12` (configuration not stated), the Ki [7] is reported as 1.26 µM (active), the Ki [8] is reported as 0.251 µM (active) and the Ki [9] is reported as 0.158 µM (active). For the same compound, the Ki [10] was 0.316 µM (active), the Ki [11] was 0.316 µM (active) and the Ki [12] was > 1.58 µM (inactive). For the same compound, the Ki [13] was 0.00794 µM (active), the Ki [14] was 3.16 µM (active) and the Ki [15] was 0.2 µM (active). The Ki [16] was 0.398 µM (active).
